What was measured:
Format in all cases: cell-based, mouse
[1] = system: adult tail-tip fibroblasts (ATTFs); experiment: Counting of spontaneously beating cells in adult tail-tip fibroblasts; settings: GHMT2m-ATTFs treated with A83-01 (0.5 μM)
Procedure: (§1) Hearts or skinned tails from adult C57BL6 mice were cut into small pieces with ˜1 mm diameter. The biopsies were seeded on a 10 cm culture dish and incubated with 10 mL of growth medium (DMEM/Hi glucose (Hyclone), 10% FBS (Gemini:), 1.1% Penicillin-Streptomycin (Gibco) and 1.1% GlutaMAX supplement (Gibco)) at 37° C. with 5% CO2. TTFs migrated out of the biopsies after 3 days. The media were changed every other day. Once the TTFs have reached a 70-80% confluence, the cells were harvested and stored for future use.
(§2) Fibroblasts were plated on tissue culture dishes pre-coated with SureCoat (Cellutron) at a density of ˜40 cells/mm^2 before transduction. The fibroblast growth medium was replaced with freshly made viral mixture containing polybrene (Sigma). Twenty-four hours later, fibroblasts were infected again with viral mixture containing polybrene. Twenty fours later, the viral medium was replaced with induction medium, composed of DMEM/199 (4:1) (Gibco), 10% FBS (Gemini), 5% horse serum(Gemini), antibiotics (Gibco), 1× non-essential amino acids (Gibco), 1× essential amino acids (Gibco), 1× B-27 (Gibco), 1× insulin-selenium-transferin (Gibco), 1× vitamin mixture (Gibco), and 1× sodium pyruvate (Gibco). Medium was changed every two-three days until cells were examined.
Cells in 60 mm dishes were examined under an EVOS® FL Color imaging system (Life Technologies) at 25° C. Beating cells were counted at a field with an area of 0.89 mm^2. Ten to fifteen fields in each dish were randomly chosen.

[2] = system: adult cardiac fibroblasts (ACFs); experiment: Immunocytochemistry for cTnT and α-actinin in adult cardiac fibroblasts; settings: by 4 weeks, without or with A83-01
Procedure: as §1, §2
Cells were fixed in 2% PFA for 15 min on ice then washed with DPBS (Gibco) three times at RT. […]

MEFs = experiment: Pro-fibrotic marker expression in infected MEFs (qPCR, Western blot, αSMA stress fiber immunostaining); settings: A83-01 0.5 μM, day 7
Procedure: (§3) Cells were harvested in TRizol reagent (Ambion) for RNA isolation. RNA was extracted with the RNeasy® Plus Universal Mini Kit (Qiagen). RT-PCR was performed using the Superscript III first-strand synthesis system (Invitrogen). qPCR was performed using the SYBR® Green PCR master mix (Applied Biosystems) or StepOne™ Real-Time PCR Systems (Applied Biosystems). Primers are listed in Supplementary Table 1. Ryr2 (Mm00465877_m1) and Myh7 (Mm01319006_91) are Taqman probes (Life technologies).
Samples were placed on ice and washed with ice-cold DPBS (Gibco) twice, then ice-cold lysis buffer (150 mM NaCl, 50 mM Tris-Cl pH7.4, 1 mM EDTA, 1% Triton, Complete mini tablet (Roche), 1 mM PMSF freshly added before use) was added to the cells. Cells were scraped and transferred to a pre-chilled 1.5 Eppendorf tube and frozen in liquid N2. Before used, the lysate was thawed on ice. The lysate was passed carefully through a 25 g needle for 5 times and then centrifuge at 14,000 rpm for 15 minutes at 4° C. The supernatant was transferred to a new 1.5 ml tube. The protein concentration was measured and 20 ug of lysate for each sample was loaded to SDSPAGE. Proteins were then transferred to PVDF. The PDVF membrane was blocked in 2.5% BSA in 1×TBST for 30 mins at room temperature (RT). The primary antibody was added in blocking buffer for 60 mins at RT. Wash in 1×TBST (20 mM Tris-Cl, pH7.4; 150 mM NaCl; 0.1% Tween20) three times at RT, each for 15 mins. The Secondary antibody was added in blocking buffer for 45 mins at RT. The membrane was washed in 1 XTBST for 15 mins, 1×TBST for 5 mins, then TBS (10 mM Tris-Cl pH8, 150 mM NaCl) for 5 mins. The membrane was resolved with Super Signal® West Pico (34080) or Femto (34095) substrate (Thermo Scientfic). The primary antibodies include: Snail (Cell Signaling, 3879S, 1:1000), Slug (Cell Signaling, 9585S, 1:1000), P-Smad2 (Cell Signaling, 23108P, 1:1000), Smad2 (Cell Signaling, 5339, 1:1000), αSMA (Santa Cruz, SC-32251, 1:10000), cTn1 (Phospho Solutions, 2010-TNI, 1:1000), cTnT (Sigma, T6277, 1:1000), and GAPDH (Ambion, AM4300). The secondary antibodies include: Goat Anti-Mouse IgG (H+L) (Southern Biotech, 1031-05, 1:2000). Goat Anti-Rabbit IgG (Life Technologies, 65-6120, 1:2000). For separation of α- and β-myosin heavy chain, samples were run by modified 6% SDS-PAGE (separating acrylamide/bis ratio 1:100; resolving gel buffer pH 9.0; running gel buffer pH 8.2; β-mercaptoethanol 600 μl/l inner gel buffer). Gels were run overnight at 4° C. and stained with BioSafe Coomassie Blue protein stain.
Cells were fixed in 2% PFA for 15 min on ice then washed with DPBS (Gibco) three times at RT. The cells were permeabilized in 0.5% Triton X-100 (made in PBS) for 20 min at RT. After washing the cells with DPBS (Gibco), cells were incubated with the primary antibody against α-actinin (Sigma A7811, 1:300), Connexin 43 (Sigma, C6219, 1:500), Troponin T (Thermo Scientific MS-245-P, 1:500), α-SMA (Santa Cruz Biotechnology, SC-32251, 1:800), Myl2 (Proteintech, 10906-1-AP, 1:200), or Myl7 (Proteintech, 17283-1-AP, 1:200) in 10% FBS(Gemini) in DPBS for 1 hour at RT. Cells were wash with DPBS three times, 5 min each. Cell were incubated with the secondary antibody (Alexa Fluor 555 Molecular Probes A21422, 1:1000) and Hoechest (Molecular Probes 33342, 1:5000) for 30 mins at RT.

[3] = system: adult cardiac fibroblasts (ACFs); experiment: qPCR of cardiac genes in adult cardiac fibroblasts; settings: infected ACFs treated with A83-01 for 4 weeks
Procedure: as §1, §3

In the case of `Cc1cccc(-c2nn(C(=S)Nc3ccccc3)cc2-c2ccnc3ccccc23)n1` [A83-01], the “time by which spontaneously beating cells appeared” value [1] is reported as 2-3 weeks, the spontaneously contracting cells ([1]; by 4 weeks) is reported as “about 4%” and the “spontaneously contracting cells per cm^2” value ([1]; by 4 weeks) is reported as “approximately 300 cells per cm^2”. For the same molecule, the “ACFs positive for cTnT” value ([2]; GHMT2m-infected ACFs) was “approximately 18%”, the “ACFs positive for cTnT” value ([2]; GHMT-infected ACFs) was “approximately 10%” and the “expression of Fn-EDA, Col1a1 and Col3a1, and formation of αSMA+ stress fibers” value (MEFs; GHMT- and GHMT2m-infected cultures) was “inhibited”. The “phosphorylation of Smad2” value (MEFs; MEFs) was “decreased” and the “expression of other cardiac genes, Actc1, Myh6 and Ryr2” value [3] was “enhanced”.
